Data reported in US8410094B2, “Amide compounds, their pharmaceutical compositions, their preparation method and their uses” (Shanghai Institute of Materia Medica, Chinese Academy of …, priority 2008, dated 2013).
pIC50: −log10 of the molar value.

biological target: T1, CCR5 (Homo sapiens, UniProt P51681); test: Inhibition of CCR5: [35S]GTPγS binding assays (filtration, SPA-WGA) and calcium influx assay, 10 nM RANTES, CHO-CCR5; type: biochemical; settings: inhibition of GTPγS binding induced by 10 nM RANTES, CHO-CCR5
T1 construct: expressed in transfected cells
T1 sequence (P51681 whole entry): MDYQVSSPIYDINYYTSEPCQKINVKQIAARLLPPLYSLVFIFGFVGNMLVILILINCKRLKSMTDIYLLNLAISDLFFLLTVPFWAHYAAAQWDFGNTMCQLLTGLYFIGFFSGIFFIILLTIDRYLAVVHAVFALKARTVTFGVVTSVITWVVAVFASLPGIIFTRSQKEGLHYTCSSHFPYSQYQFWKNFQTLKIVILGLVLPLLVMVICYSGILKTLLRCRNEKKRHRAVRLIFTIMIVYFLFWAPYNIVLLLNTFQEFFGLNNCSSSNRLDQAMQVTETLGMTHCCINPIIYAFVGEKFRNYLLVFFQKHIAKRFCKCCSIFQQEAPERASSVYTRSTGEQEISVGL
Procedure: CCR5 belongs to G-Protein-Coupled Receptor (GPCR) family. The developing technology of GPCR-based drugs have been well-developed, among them, the experimental techniques such as ligand-receptor binding assay, GTPγS binding assay and Ca^2+ flux assay have been widely used in drug-screening related to chemokine receptors. The inhibitory activities of the compounds according to the present invention against CCR5 are measured by three methods, i.e., [^35S]GTPγS filter binding assay, SPA-WGA-based [^35S]GTPγS binding assay and calcium influx assay. At the same time, the antiviral activities in cell of the compounds according to the present invention are evaluated by using two kinds HIV-1 subtypes: H4DA5 cell model and PBMC system virus replication model.
A. [^35S]GTPγS Binding Assay
After binding with an agonist, CCR5 experiences a conformation change such that CCR5 interacts with G protein so as to active the G protein. G protein is a tripolymer composed of α-subunit and βγ-subunit. Since the ability of α-subunit binding to GTP depends on the interaction of CCR5 with the agonist, the ability of an agonist for activating CCR5 can be reflected by determining the amount of GTP binding to α-subunit. In a GTPγS binding assay, a ^35S-labeled GTP analogue GTPγS, which can bind with an activated α-subunit without being hydrolyzed, is used to replace GTP in order for eliminating the defect that the amount of GTP binding to G protein can not exactly reflect the activation of CCR5 due to the hydrolysis of GTO by GTPase and for convenience of detection. So, α-subunit binds with GDP when CCR5 is not activated, and after the activation of CCR5, α-subunit binds with GTPγS such that GTPγS irreversible binds to α-subunit. Therefore, the amount of [^35S]-GTPγS binding to α-subunit could reflect the level of CCR5 activated by an agonist. The ability of the agonist for activating CCR5 will decrease when an antagonist is added.
Such experiment has been referred to as GTPγS filtration assay in which [^35S]-GTPγS bound with the free G protein could be separated by membrane filtration.
Alternatively, SPA (Scintillation Proximity Assay) technique can be used to detect the [^35S]-GTPγS bound to G protein, which is called SPA-WGA-based [35S]GTPγS binding assay. The principle of SPA technique is as follows. Sub-atomic particles released during the decay of radioactive atoms, for example β-ray (electron), can excite microspheres at a sufficiently close distance to emit light so as to be detected by a Scintillation Counter. In an aqueous solution, most of the energy of these rays is absorbed by the solvent, and the traveling distance of these rays is limited.
The activation of G protein by CCR5 is determined by the following experiments.
CHO (Chinese hamster ovary cell) permanent cell line expressing CCR5 (CHO-CCR5) (a cell line constructed by Shanghai Targetdrug Ltd.) was lysed with a lysis buffer (5 mM Tris-HCl, pH 7.5, 5 mM EDTA and 5 mM EGTA) and then centrifugated at 15,000×g for 10 min to obtain cell membrane. After the cell membrane was resuspended in a reaction buffer (5 mM Tris-HCl, pH 7.5, 5 mM MgCl2, 1 mM EGTA, 100 mM NaCl), the protein concentration was determined using Bioford Protein Assay Kit manufactured by Bio-Rad Laboratories Inc. Subsequently, GTPγS binding assay was performed in the reaction buffer, wherein the reaction system was 100 μL containing 10 μg membrane protein, 40 μM GDP and 0.5 nM [^35S]-GTPγS (1200 Ci/mmol). After the compound to be tested (the compound was first dissolved in DMSO and then diluted in gradient with the reaction buffer according to the specific situation, wherein the final concentration of DMSO was 1% (v/v) in the whole reaction system) was added and shaken to mix homogeneously, the reaction tube was incubated at 30° C. for 1 hour. After the reaction finished, the tube was placed on ice, and the reaction mixture was diluted with PBS to quench the reaction and filtered under reduced pressure with a GF/C filter membrane. […]

| Compound | pIC50 |
| --- | --- |
| 1-acetyl-N-(3-chloro-4-methylphenyl)-N-(3-(3-exo-(2-(4-(pyrrolidine-1-sulfonyl)phenyl)acetamido)-8-azabicyclo[3.2.1]oct-8-yl)propyl)-4-piperidinylcarboxamide [Compound 7i] | 8.53 |
| CC(=O)N1CCC(C(=O)N(CCCN2[C@@H]3CC[C@H]2C[C@H](NC(=O)Cc2ccc(F)cc2)C3)c2ccc(C)c(Cl)c2)CC1 [Compound 7b, 1-acetyl-N-(3-chloro-4-methylphenyl)-N-(3-(3-exo-(2-(4-fluorphenyl)acetamido)-8-azabicyclo[3.2.1]oct-8-yl)propyl)-4-piperidinylcarboxamide] | 7.51 |
| CC(=O)N1CCC(C(=O)N(CCCN2[C@@H]3CC[C@H]2C[C@H](NC(=O)Cc2ccc(C(F)(F)F)cc2)C3)c2ccc(C)c(Cl)c2)CC1 [Compound 7d, 1-acetyl-N-(3-chloro-4-methylphenyl)-N-(3-(3-exo-(2-(4-(trifluoromethyl)phenyl)acetamido)-8-azabicyclo[3.2.1]oct-8-yl)propyl)-4-piperidinylcarboxamide] | 7.31 |
| CC(=O)N1CCC(C(=O)N(CCCN2C3CCC2CC(NC(=O)CC24CC5CC(CC(C5)C2)C4)C3)c2ccc(C)c(Cl)c2)CC1 (stereo not drawn) [Compound 7e, 1-acetyl-N-(3-chloro-4-methylphenyl)-N-(3-(3-exo-(2-(1-adamantyl)acetamido)-8-azabicyclo[3.2.1]oct-8-yl)propyl)-4-piperidinylcarboxamide] | 6.68 |
| CC(=O)N1CCC(C(=O)N(CCCN2[C@@H]3CC[C@H]2C[C@H](NC(=O)Cc2ccc([N+](=O)[O-])cc2)C3)c2ccc(C)c(Cl)c2)CC1 [Compound 7f, 1-acetyl-N-(3-chloro-4-methylphenyl)-N-(3-(3-exo-(2-(4-nitrophenyl)acetamido)-8-azabicyclo[3.2.1]oct-8-yl)propyl)-4-piperidinylcarboxamide] | 7.70 |
| CC(=O)N1CCC(C(=O)N(CCCN2[C@@H]3CC[C@H]2C[C@H](NC(=O)Cc2ccc(O)cc2)C3)c2ccc(C)c(Cl)c2)CC1 [Compound 7g, 1-acetyl-N-(3-chloro-4-methylphenyl)-N-(3-(3-exo-(2-(4-hydroxyphenyl)acetamido)-8-azabicyclo[3.2.1]oct-8-yl)propyl)-4-piperidinylcarboxamide] | 7.32 |
| CC(=O)N1CCC(C(=O)N(CCCN2[C@@H]3CC[C@H]2C[C@H](NC(=O)Cc2ccc(S(=O)(=O)N(C)C)cc2)C3)c2ccc(C)c(Cl)c2)CC1 [Compound 7j, 1-acetyl-N-(3-chloro-4-methylphenyl)-N-(3-(3-exo-(2-(4-(N,N-dimethylsulphonyl)phenyl)acetamido)-8-azadicyclo[3.2.1]oct-8-yl)propyl)-4-piperidinylcarboxamide] | 8.51 |
| CC(=O)N1CCC(C(=O)N(CCCN2[C@@H]3CC[C@H]2C[C@H](NC(=O)Cc2ccc4ccccc4c2)C3)c2ccc(C)c(Cl)c2)CC1 [Compound 7o, 1-acetyl-N-(3-chloro-4-methylphenyl)-N-(3-(3-exo-(2-(2-naphthyl)acetamido)-8-azabicyclo[3.2.1]-oct-8-yl)propyl)-4-piperidinylcarboxamide] | 6.16 |
| CC(=O)N1CCC(C(=O)N(CCCN2C3CCC2CC(NC(=O)C(O)c2ccccc2)C3)c2ccc(C)c(Cl)c2)CC1 (stereo not drawn) [Compound 7p, 1-acetyl-N-(3-chloro-4-methylphenyl)-N-(3-(3-exo-(2-hydroxyl-2-phenylacetamido)-8-azabicyclo[3.2.1]oct-8-yl)propyl)-4-piperidinylcarboxamide] | 7.29 |
| CC(=O)N1CCC(C(=O)N(CCCN2[C@@H]3CC[C@H]2C[C@H](NC(=O)Cc2c[nH]c4ccccc24)C3)c2ccc(C)c(Cl)c2)CC1 [Compound 7q, N-(3-(3-exo-(2-(3-indolyl)acetamido)-8-azabicyclo[3.2.1]oct-8-yl)propyl)-1-acetyl-N-(3-chloro-4-methylphenyl)-4-piperidinylcarboxamide] | 7.09 |
| COc1cc(CC(=O)N[C@@H]2C[C@H]3CC[C@@H](C2)N3CCCN(C(=O)C2CCN(C(C)=O)CC2)c2ccc(C)c(Cl)c2)cc(OC)c1OC [Compound 7r, 1-acetyl-N-(3-chloro-4-methylphenyl)-N-(3-(3-exo-(2-(3,4,5-trimethoxylphenyl)acetamido)-8-azabicyclo[3.2.1]oct-8-yl)propyl)-4-piperidinylcarboxamide] | 7.69 |

The next lines start with the values.

| pIC50 | Compound |
| --- | --- |
| 7.82 | CC(=O)N1CCC(C(=O)N(CCCN2[C@@H]3CC[C@H]2C[C@H](NC(=O)Cc2ccc(Cl)cc2)C3)c2ccc(C)c(Cl)c2)CC1 [Compound 7c, 1-acetyl-N-(3-chloro-4-methylphenyl)-N-(3-(3-exo-(2-(4-chlorphenyl)acetamido)-8-azabicyclo[3.2.1]oct-8-yl)propyl)-4-piperidinylcarboxamide] |
| 7.94 | CC(=O)N1CCC(C(=O)N(CCCN2[C@@H]3CC[C@H]2C[C@H](NC(=O)Cc2ccc(S(C)(=O)=O)cc2)C3)c2ccc(C)c(Cl)c2)CC1 [Compound 7k, 1-acetyl-N-(3-chloro-4-methylphenyl)-N-(3-(3-exo-(2-(4-(methylsulphonyl)phenyl)acetamido)-8-azabicyclo[3.2.1]oct-8-yl)propyl)-4-piperidinylcarboxamide] |
| 8.12 | CC(=O)N1CCC(C(=O)N(CCCN2[C@@H]3CC[C@H]2C[C@H](NC(=O)Cc2ccc(S(=O)(=O)NC(C)(C)C)cc2)C3)c2ccc(C)c(Cl)c2)CC1 [Compound 7m, 1-acetyl-N-(3-(3-exo-(2-(4-(N-tert-butylsulphonyl)phenyl)acetamido)-8-azabicyclo[3.2.1]oct-8-yl)propyl)-N-(3-chloro-4-methylphenyl)-4-piperidinylcarboxamide] |
| 8.31 | CC(=O)N1CCC(C(=O)N(CCCN2[C@@H]3CC[C@H]2C[C@H](NC(=O)Cc2ccc(Cl)c(Cl)c2)C3)c2ccc(C)c(Cl)c2)CC1 [Compound 7h, 1-acetyl-N-(3-chloro-4-methylphenyl)-N-(3-(3-exo-(2-(3,4-dichlorophenyl)acetamido)-8-azabicyclo[3.2.1]oct-8-yl)propyl)-4-piperidinylcarboxamide] |
| 8.32 | CC(=O)N1CCC(C(=O)N(CCCN2[C@@H]3CC[C@H]2C[C@H](NC(=O)Cc2cccc4ccccc24)C3)c2ccc(C)c(Cl)c2)CC1 [Compound 7n, 1-acetyl-N-(3-chloro-4-methylphenyl)-N-(3-(3-exo-(2-(1-naphthyl)acetamido)-8-azabicyclo[3.2.1]oct-8-yl)propyl)-4-piperidinylcarboxamide] |
| 8.46 | CC(=O)N1CCC(C(=O)N(CCCN2[C@@H]3CC[C@H]2C[C@H](NC(=O)Cc2ccc(S(=O)(=O)N4CCOCC4)cc2)C3)c2ccc(C)c(Cl)c2)CC1 [Compound 7l, 1-acetyl-N-(3-chloro-4-methylphenyl)-N-(3-(3-exo-(2-(4-(morpholinosulfonyl)phenyl)acetamido)-8-azabicyclo[3.2.1]oct-8-yl)propyl)-4-piperidinylcarboxamide] |

same assay, conditions: read-out: inhibition against CCR5 @30 nM

| Compound | inhibition at 0.03 µM [%] |
| --- | --- |
| CC(=O)N1CCC(C(=O)N(CCCN2C3CCC2CC(NC(=O)Cc2ccccc2)C3)c2ccc(C)c(Cl)c2)CC1 (stereo not drawn) [Compound 7a, 1-acetyl-N-(3-chloro-4-methylphenyl)-N-(3-(3-exo-(2-phenylacetamido)-8-azabicyclo[3.2.1]oct-8-yl)propyl)-4-piperidinylcarboxamide] | 26.2 |

same assay, conditions: read-out: inhibition against CCR5 @300 nM

| Compound | inhibition at 0.3 µM [%] |
| --- | --- |
| CC(=O)N1CCC(C(=O)N(CCCN2C3CCC2CC(NC(=O)Cc2ccccc2)C3)c2ccc(C)c(Cl)c2)CC1 (stereo not drawn) [Compound 7a, 1-acetyl-N-(3-chloro-4-methylphenyl)-N-(3-(3-exo-(2-phenylacetamido)-8-azabicyclo[3.2.1]oct-8-yl)propyl)-4-piperidinylcarboxamide] | 64.6 |
